According to ChEMBL document CHEMBL4118235, “The recent progress of isoxazole in medicinal chemistry” (Bioorg Med Chem, 2018):
Converted amounts (≈) assume the structure as drawn.

How the values were obtained:
[1] = tested on: Mycobacterium tuberculosis; assay: Antimycobacterial activity against Mycobacterium tuberculosis H37Rv; type: functional
[2] = target: T1, Protein deacetylase HDAC6 (Homo sapiens, UniProt Q9UBN7); assay: Inhibition of recombinant human full length HDAC6 expressed in baculovirus infected Sf9 insect cells using RHKKAC as substrate incubated for 5 to 10 mins followed by substrate addition measured after 2 hrs by fluorescence assay
T1 sequence (Q9UBN7 whole entry): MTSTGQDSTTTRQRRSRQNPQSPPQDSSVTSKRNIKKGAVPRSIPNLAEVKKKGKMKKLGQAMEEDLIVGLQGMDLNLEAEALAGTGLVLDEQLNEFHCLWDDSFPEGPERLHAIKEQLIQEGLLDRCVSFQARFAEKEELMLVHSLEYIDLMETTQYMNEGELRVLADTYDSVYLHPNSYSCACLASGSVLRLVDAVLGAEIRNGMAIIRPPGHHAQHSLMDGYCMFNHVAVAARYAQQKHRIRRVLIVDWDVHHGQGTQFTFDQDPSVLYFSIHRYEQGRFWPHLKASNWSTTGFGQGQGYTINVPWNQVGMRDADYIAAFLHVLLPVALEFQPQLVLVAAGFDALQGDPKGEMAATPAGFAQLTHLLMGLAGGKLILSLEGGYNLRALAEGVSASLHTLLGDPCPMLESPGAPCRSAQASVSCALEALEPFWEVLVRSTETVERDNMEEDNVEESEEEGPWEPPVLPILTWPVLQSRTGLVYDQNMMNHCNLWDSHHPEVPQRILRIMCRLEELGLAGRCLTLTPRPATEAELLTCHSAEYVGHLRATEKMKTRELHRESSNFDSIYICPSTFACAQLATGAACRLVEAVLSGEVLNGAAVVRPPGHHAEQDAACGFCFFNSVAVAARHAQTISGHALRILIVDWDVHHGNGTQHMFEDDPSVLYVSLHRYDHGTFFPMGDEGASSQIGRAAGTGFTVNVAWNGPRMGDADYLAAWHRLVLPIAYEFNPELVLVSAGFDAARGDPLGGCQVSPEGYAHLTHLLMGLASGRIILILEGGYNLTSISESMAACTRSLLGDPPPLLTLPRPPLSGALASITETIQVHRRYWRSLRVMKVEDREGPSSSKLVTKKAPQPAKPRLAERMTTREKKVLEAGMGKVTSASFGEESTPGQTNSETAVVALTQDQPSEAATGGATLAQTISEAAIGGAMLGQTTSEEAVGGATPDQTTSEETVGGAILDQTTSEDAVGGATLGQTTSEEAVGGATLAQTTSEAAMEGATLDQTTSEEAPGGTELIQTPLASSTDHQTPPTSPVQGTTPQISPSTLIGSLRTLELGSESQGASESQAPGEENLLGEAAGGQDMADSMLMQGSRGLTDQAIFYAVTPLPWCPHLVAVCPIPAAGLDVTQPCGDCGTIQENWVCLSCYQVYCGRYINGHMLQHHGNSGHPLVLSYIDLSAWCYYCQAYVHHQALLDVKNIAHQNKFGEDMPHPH

Homo sapiens [3] = species: Homo sapiens; assay: Selectivity ratio of IC50 for recombinant human full length HDAC1 expressed in baculovirus infected Sf9 insect cells to IC50 for recombinant human full length HDAC6 expressed in baculovirus infected Sf9 insect cells
Homo sapiens [4] = species: Homo sapiens; assay: Selectivity ratio of IC50 for human HDAC2 to IC50 for recombinant human full length HDAC6 expressed in baculovirus infected Sf9 insect cells
Homo sapiens [5] = species: Homo sapiens; assay: Selectivity ratio of IC50 for human HDAC3 to IC50 for recombinant human full length HDAC6 expressed in baculovirus infected Sf9 insect cells
HCT-116 [6] = assay: Antitumor activity against human HCT116 cells xenografted in BALB/c nude mouse assessed as tumor growth inhibition at 50 mg/kg, ip for 16 days; type: functional; details: HCT-116, ip, 384 h, read-out: TGI
HCT-116 [7] = assay: Antitumor activity against human HCT116 cells xenografted in BALB/c nude mouse assessed as tumor growth inhibition at 100 mg/kg, ip for 16 days; type: functional; details: HCT-116, ip, 384 h, read-out: TGI
Staphylococcus aureus = assay: Antibacterial activity against Staphylococcus aureus ATCC 6538P after 24 hrs by agar well diffusion method; type: functional
Escherichia coli = assay: Antibacterial activity against Escherichia coli ATCC 8739 after 24 hrs by agar well diffusion method; type: functional; details: ATCC 8739, 24 h
MCF7 = assay: Antiproliferative activity against human MCF7 cells after 48 hrs by MTT assay; type: functional, cell-based; details: MCF7, 48 h
HeLa = assay: Antiproliferative activity against human HeLa cells after 48 hrs by MTT assay; type: functional, cell-based
MC-38 = assay: Cytotoxicity against mouse Colon 38 cells after 5 days by hemocytometry; type: functional, cell-based; details: MC-38, 120 h
CT26 = assay: Cytotoxicity against mouse CT26 cells after 5 days by hemocytometry; type: functional, cell-based; details: CT26, 120 h

Row | SMILES | IC50 [2] [µM] | Ratio IC50 (Homo sapiens [3]) | Ratio IC50 (Homo sapiens [4]) | Ratio IC50 (Homo sapiens [5]) | further results
1 | CCOC(=O)c1cc(/C=C/c2ccnc3ccccc23)on1 |  |  |  |  | MIC [1]: 0.2 µM (≈ 0.0589 µg/mL)
2 | CCCCCCC(=O)Nc1ccc(-c2cc(C(=O)NCc3ccc(C(=O)NO)cc3)no2)cc1 | < 0.01 | > 500 | > 500 | > 500 | 
3 | CC(C)(C)OC(=O)Nc1ccc(-c2cc(C(=O)NCc3ccc(C(=O)NO)cc3)no2)cc1 | < 0.01 | > 500 | > 500 | > 500 | 
4 | CCc1cc(-c2oncc2-c2ccc(OC)cc2)c(O)cc1OC |  |  |  |  | inhibition in vivo at 50 mg/kg (HCT-116 [6]): 49.5%; inhibition in vivo at 100 mg/kg (HCT-116 [7]): 70.3%
5 | CC(C)(C)OC(=O)Nc1cccc(-c2cc(C(=O)NCc3ccc(C(=O)NO)cc3)no2)c1 | < 0.01 | > 500 | > 500 | > 500 | 
6 | CCCCCCC(=O)Nc1cccc(-c2cc(C(=O)NCc3ccc(C(=O)NO)cc3)no2)c1 | < 0.01 | > 500 | > 500 | > 500 | 
7 | O=[N+]([O-])c1ccc(-c2cc(C3CC3)no2)cc1 |  |  |  |  | MIC (Staphylococcus aureus): 25 µg/mL (≈ 109 µM); MIC (Escherichia coli): 25 µg/mL (≈ 109 µM)
8 | COc1ccc(-c2cc(-c3cccs3)on2)cc1OC |  |  |  |  | IC50 (MCF7): 19.5 µM; IC50 (HeLa): 39.2 µM
9 | O=C(Nc1ccc(Cl)cc1)c1ccno1 |  |  |  |  | IC50 (MC-38): 2.5 µg/mL (≈ 11.2 µM); IC50 (CT26): 2.5 µg/mL (≈ 11.2 µM)
